Data from patent publication US5116602A, “Antiplaque oral compositions” (Colgate-Palmolive Company, priority 1989, dated 1992).
Where two headings read alike, the source gives them in different places.

Experiments:
Rat = details: cited from earlier work
[1] = test system: Actinomyces viscosus T14V; type: cell-based; details: for % Red. / Bact. Count (Log 10): Table VIII
Description: The SIKT test is a basic microbiological test which incorporates a fixed contact time. […] The system is then neutralized to inhibit further antimicrobial activity. The surviving bacteria are enumerated using plate count methodology. The reduction in counts compared to a water control is the basis for expressing activity. A three log reduction is usually considered significant.

[2] = oral, values reported in the literature
[3] = Table VI, rinses, with and without Carbopol polymers

SMILES | LD 50 (Oral, Rat) (Rat; [2]) [mg/kg] | % Red. ([1]; concentration 0.01) [%] | Bact. Count (Log 10) ([1]; concentration 0.01) | % Red. ([1]; concentration 0.02) [%] | Bact. Count (Log 10) ([1]; concentration 0.02) | % Red. ([1]; concentration 0.04) [%] | Bact. Count (Log 10) ([1]; concentration 0.04) | % Red. ([1]; concentration 0.06) [%] | Bact. Count (Log 10) ([1]; concentration 0.06) | % Red. ([1]; concentration 0.07) [%] | Bact. Count (Log 10) ([1]; concentration 0.07) | % Red. ([1]; concentration 0.08) [%] | Bact. Count (Log 10) ([1]; concentration 0.08) | further results
CC(C)=CCC[C@](C)(O)C1CC=C(C)CC1 (stereo partly drawn) [Bisabolol] | 5000 |  |  |  |  |  |  |  |  |  |  |  |  | 
[H]/N=C(\N/C(=N/[H])NCCCCCCNC(=N)NC(=N)Nc1ccc(Cl)cc1)Nc1ccc(Cl)cc1 [Chlorhexidine, reference compound] |  |  |  |  |  |  |  |  |  |  |  |  |  | % Reduction [1, 3]: > 99.00%; Bacterial Count (log 10) [1, 3]: 4.52 log 10
CC(C)=CCCC(C)=CCCC(C)=CCO [Farnesol] |  | > 99.99 | < 2.00 | > 99.99 | < 2.00 | > 99.99 | < 2.00 | > 99.99 | < 2.00 | > 99.99 | < 2.00 | > 99.99 | < 2.00 | % Red. ([1]; concentration 0.005): 99.9%; Bact. Count (Log 10) ([1]; concentration 0.005): 3.66 Log 10; % Red. ([1]; concentration 0.0075): > 99.99%; Bact. Count (Log 10) ([1]; concentration 0.0075): 2.50 Log 10
COC(=O)c1ccccc1O [Methyl salicylate, reference compound] |  |  |  |  |  |  |  |  |  |  |  |  |  | LD 50 (Oral, Rat) (Rat; in vivo, po): 887 mg/kg
C=CC(C)(O)CCC=C(C)CCC=C(C)C (stereo not drawn) [Nerolidol] | > 5000 |  |  |  |  |  |  |  |  |  |  |  |  | 
Cc1ccc(C(C)C)c(O)c1 [Thymol, reference compound] |  | 0 | 6.67 | 0 | 6.71 | 0 | 6.23 | 99.99 | 3.93 | > 99.99 | < 2.00 | > 99.99 | < 2.00 | 
